{"source": "patent US9333240B2", "about": "“Compounds for improving nutritional status, cognition and survival” (YISSUM RESEARCH DEVELOPMENT COMPANY OF THE HEBREW …, priority 2005, dated 2016)", "key": {"Bcl-2, Bax, PARP": {"system": "Bcl-2, Bax, PARP", "assay": "Hippocampal apoptosis proteins by RT-PCR and immunoblotting", "format": "in vivo, mice", "details": "AICAR treatment (1-2 mM), RT-PCR and immunoblotting", "protocol": "Total hippocampal RNA was extracted using […] reagent according to the manufacturer's instructions and reverse transcribed. Primers specific for OBRlong were […] NO: 1) and […] NO: 6), for […] NO: 2), and […] NO: 7), for BAX […] NO: 3) and […] NO: 8) for Bcl-2 […] NO: 4) and […] NO: 9) and for actin […] NO: 5) and […] NO: 10). […] Total hippocampal Protein was extracted using […] reagent. Aliquots of the clarified lysates containing […] were denatured in Laemmli sample buffer (6% SDS 30%, glycerol, 0.02% bromophenol blue, 200 mM Tris-HCl (pH 6.8), and 250 mM-mercaptoethanol, at 95° C. for 5 min. The samples were resolved by SDS-PAGE (10% acrylamide), and blotted onto nitrocellulose membrane. Non-specific binding in a Western blot analysis was prevented by immersing the membranes in blocking buffer (5% nonfat dry milk in Tris-buffer saline-Tween 20 (TBS-T)), for 2 h at room temperature. The membranes were then exposed to the indicated antibodies diluted 1:1000 for 1 h at room temperature. AMPK, phospho-AMPK and PARP were obtained from Cell Signaling. Bax, bcl-2 and actin were from Santa Cruz Biotechnology Inc. (Santa Cruz, Calif.). The blots were rinsed in TBS-T and then incubated with horseradish peroxidase-conjugated goat anti-mouse antibodies 1:10,000 for 1 h at room temperature. Antibody-antigen complexes were visualized by detecting enhanced chemiluminescence with X-ray film."}, "[1]": {"system": "norepinephrine and dopamine in the hippocampus", "assay": "Hippocampal catecholamine measurements (HPLC-ECD)", "format": "in vivo, mice", "details": "AICAR 1-2 mM daily for 10 days", "protocol": "Control mice received food ad-libitum. Diet-restricted mice received a diet of 57 kCal/week/mouse (2.16 g/day/mouse) as 60% of the requirement, or 38 kCal/week/mouse (1.44 g/day/mouse) for 40%/DR. DR was carried out for 10 days. Behavioral test was performed using the eight-arm spatial maze during the second week of experiment. During the behavioral tests, half of the animals in each group were injected intraperitoneally (i.p) with AICAR (1-2 mM equal to 258-516 mg/kg) or leptin (1 mg/kg) and the other half with saline. Mice were sacrificed by decapitation after the behavioral tests and the hippocampi were frozen at -70° C. Catecholamines were measured as described previously ([…] et al (1996), Brain Res. 732, 133-144. The assays for dopamine and NE were performed by HPLC separation and detection using HPLC-ECD. Values are presented as a concentration (ng/mg tissue)."}, "[2]": {"system": "BrdU-immunoreactive cells in the dentate gyrus", "assay": "BrdU labelling of newly generated cells in the dentate gyrus of mice", "format": "in vivo", "details": "25 nM AICAR once daily for 10 days vs saline", "protocol": "In order to determine what is “low level activation” varying doses of the AMPK pathway activator may be administered to test animals in the final formulation intended to be used in humans, together with Brd-U. Animals are than sacrificed and the number of BrdU-immunoreactive cells in the dentate gyrus is determined in order to measure the generation rate of new cells. Amounts that are capable of increasing the number of newly generated cells are considers as “therapeutically effective amounts” when converted, according to known criteria, to physiologically corresponding amounts in humans.\nThe function of AMPK activation in the hippocampus was evaluated. […] Mice were treated with bromodeoxyuridine (BrdU) and either saline or 25 nM AICAR (low level stimulation) once daily for 10 days. […] Next, behavioral testing was performed using the eight-arm maze to determine whether there was a concomitant improvement in cognition. […] (FIG. 1C)."}, "mice": {"system": "mice", "assay": "Eight-arm maze, mice ad libitum or diet restricted", "format": "in vivo", "protocol": "Control mice received food ad-libitum. Diet-restricted mice received a diet of 57 kCal/week/mouse (2.16 g/day/mouse) as 60% of the requirement, or 38 kCal/week/mouse (1.44 g/day/mouse) for 40%/DR. DR was carried out for 10 days. Behavioral test was performed using the eight-arm spatial maze during the second week of experiment. […] Mice were sacrificed by decapitation after the behavioral tests and the hippocampi were frozen at −70° C. The animals were placed in an eight-arm maze, which is a scaled-down version of that developed for rats (Randt et al, (1971) Science 172, 489-499; Ziv et al (1994) Neuroscience Lett, 170, 136-140). […] The mice were tested until they made entries into all eight arms or until they completed 24 entries, whichever came first. […] Maze performance was calculated each day for five consecutive days. Results were presented as area under the curve (AUC) utilizing the formula: (day 2+day 3+day 4+day 5)−4*(day 1)."}, "PC-12 cells": {"system": "PC-12 cells", "assay": "Annexin V FACS analysis of apoptosis in PC-12 cells", "format": "cell-based", "details": "AICAR, 48 h", "protocol": "Cells were grown in 60-mm plates and treated with AICAR for 48 h. Apoptosis was evaluated using the Annexin V FITC Detection Kit (Oncogene Research Products, Cambridge Mass.). Briefly, both attached and floating cells were collected, washed with cold PBS, re-suspended at a density of 5×10^5/ml in 0.5 ml DMEM, stained for annexin V and analyzed by flow cytometry. The apoptotic ratio at 48 h, was also evaluated, by FACS analysis."}, "[3]": {"system": "differentiated PC-12 cells", "assay": "Viable cell number of differentiated PC-12 cells", "format": "cell-based", "details": "AICAR 0.125 to 1.0 mM, 96 h", "protocol": "PC-12 cells were kindly provided by O. Meyuhas, Dept. of Biochem., Faculty of Medicine, Jerusalem. These cells were grown either in Dulbecco's modified Eagle's medium (DMEM) supplemented with 8% horse serum, 8% fetal bovine serum (FBS), glutamine, and gentamicin or with 1% horse serum, in the presence of nerve growth factor (NGF) (50 ng/ml), which causes the cells to differentiate. Murine leptin was provided by A. Gertler. AICAR was obtained from Toronto Research Chemicals (TRC). To confirm the cellular effects of AMPK in the hippocampus, in-vitro studies on PC-12 cells were also preformed."}}, "data": [{"smiles": "NC(=O)c1ncn([C@@H]2O[C@H](CO)[C@@H](O)[C@H]2O)c1N", "note": "[AICAR, 5-aminoimidazole-4-carboxamide ribonucleoside, reference compound]", "values": [{"measurement": "Bax level", "setting": "Bcl-2, Bax, PARP", "result": "up-regulation"}, {"measurement": "bcl-2 level", "setting": "Bcl-2, Bax, PARP", "result": "reducing"}, {"measurement": "dopamine concentrations", "setting": "[1]; p<0.05", "result": "elevating"}, {"measurement": "norepinephrine (NE) concentrations", "setting": "[1]; p<0.05, 0.01 for the two dosages", "result": "decreased"}, {"measurement": "number of BrdU-immunoreactive cells in the dentate gyrus (generation rate of new cells)", "setting": "[2]", "result": "significantly increased"}, {"measurement": "eight-arm maze performance", "setting": "mice; 25 nM AICAR (low level stimulation) vs controls", "result": "performed significantly better than the controls"}, {"measurement": "eight-arm maze performance", "setting": "mice; high dose AICAR (1-2 mM) vs ad libitum group, similar to DR to 40%", "result": "significant deterioration in maze performance"}, {"measurement": "apoptotic cell death (Annexin V staining)", "setting": "PC-12 cells", "result": "induces apoptotic cell death in a dose-dependent manner"}, {"measurement": "number of viable cells", "setting": "[3]", "result": "dose-dependent reduction in the number of viable cells, reaching almost total after 96 h"}]}]}
